Measurements as given in patent publication US20260201008A1, “SECRETIN-DERIVED GLP1R SELECTIVE AGONISTS” (GUBRA A/S, priority 2023, published 2026).
Like-named read-outs stand apart in the source and are kept apart here. Numbered stars: 1 amine (or outer) side, 2 acyl side, 3 side chain; on linkers, the order of the positions; unused ones are H or OH. Square brackets hold non-standard residues; d marks the D form. Side chains are listed from the residue outwards. Peptide text beside a SMILES is read from it. * marks the point of attachment. C20 diacid = O=C(O)CCCCCCCCCCCCCCCCCCC(=O)*; γGlu = O=C(O)[C@H](CCC(=O)[*:2])N[*:1]; AEEA = NCCOCCOCC(=O)O; Aib = CC(C)(N)C(=O)O

Columns and labels:
[1] = Fibril formation of crude library peptides (Thioflavin T); type: physicochemical; set-up: key: average ThT fluorescence emission at 480 nm (ex 450 nm), raw units; conditions: Physical stability of peptides
Procedure, shortened: (§1)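 Values reflect mean ThT emission (ex 450, em 480 nm) over 72 h at 40° C, read every 10 min after 5 min shaking at 700 rpm, plus a single initial absorbance at 600 nm for turbidity. Peptides were at 267 μM, pH 4.0 acetate or pH 7.0 phosphate (50 mM), with 4 μM ThT.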

[2] = target: SCTR (Homo sapiens, UniProt P47872); experiment: hSCTR potency, cAMP accumulation in CHO-K1 cells stably overexpressing hSCTR; type: cell-based; set-up: alternatively Euroscreen ES-712-AF; FAST-0161L; host or cells: CHO-K1
Procedure, shortened: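 Potency reflects cAMP accumulation after 30 min agonist exposure at room temperature in hSCTR-expressing CHO-K1 cells, with 0.5 mM IBMX present to block phosphodiesterase. EC50 was derived by nonlinear regression.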

[3] = target: GLP1R (Homo sapiens, UniProt P43220); experiment: hGLP1R potency, cAMP accumulation in CHO-K1 cells stably overexpressing hGLP1R; type: cell-based; set-up: host or cells: CHO-K1; conditions: for Selectivity: SCTR EC50/GLP1R EC50 ratio; for SCTR EC50/GLP1R EC50 ratio: selectivity for hGLP1R over hSCTR, cAMP accumulation in CHO-K1 cells
Procedure, shortened: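 Potency reflects cAMP accumulation measured by time-resolved fluorescence energy transfer after a 30 min room-temperature stimulation in IBMX-containing (0.5 mM) DPBS with casein. Purified peptides were tested in duplicate over eleven threefold dilutions, and EC50 was obtained from sigmoid concentration-response fitting.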

[4] = Turbidity of crude library peptides (absorbance at 600 nm); type: physicochemical; conditions: Physical stability of peptides
Procedure, shortened: as §1

[5] = cAMP accumulation, CHO-K1 cells overexpressing hSCTR, read-out: pEC50 hSCTR (converted)
[6] = cAMP accumulation, CHO-K1 cells overexpressing hGLP1R, read-out: pEC50 hGLPR1 (converted)
[7] = cAMP accumulation, CHO-K1 cells overexpressing hSCTR, read-out: hSCTR pEC50 (converted)
[8] = cAMP accumulation, CHO-K1 cells overexpressing hGLP1R, read-out: hGLP1R pEC50 (converted)

Chain of SCTR (P47872 23-440): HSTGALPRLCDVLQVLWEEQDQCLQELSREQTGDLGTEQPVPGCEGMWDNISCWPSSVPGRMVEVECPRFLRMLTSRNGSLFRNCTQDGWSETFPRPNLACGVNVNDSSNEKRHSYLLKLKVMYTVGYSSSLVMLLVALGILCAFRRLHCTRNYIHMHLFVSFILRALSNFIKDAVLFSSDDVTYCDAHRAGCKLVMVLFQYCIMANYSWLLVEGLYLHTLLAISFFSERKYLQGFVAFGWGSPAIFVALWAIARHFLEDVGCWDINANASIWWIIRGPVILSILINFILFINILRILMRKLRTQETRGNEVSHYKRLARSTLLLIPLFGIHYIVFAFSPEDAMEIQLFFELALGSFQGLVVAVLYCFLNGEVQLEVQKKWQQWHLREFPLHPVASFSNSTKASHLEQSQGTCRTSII
Chain of GLP1R (P43220 24-463): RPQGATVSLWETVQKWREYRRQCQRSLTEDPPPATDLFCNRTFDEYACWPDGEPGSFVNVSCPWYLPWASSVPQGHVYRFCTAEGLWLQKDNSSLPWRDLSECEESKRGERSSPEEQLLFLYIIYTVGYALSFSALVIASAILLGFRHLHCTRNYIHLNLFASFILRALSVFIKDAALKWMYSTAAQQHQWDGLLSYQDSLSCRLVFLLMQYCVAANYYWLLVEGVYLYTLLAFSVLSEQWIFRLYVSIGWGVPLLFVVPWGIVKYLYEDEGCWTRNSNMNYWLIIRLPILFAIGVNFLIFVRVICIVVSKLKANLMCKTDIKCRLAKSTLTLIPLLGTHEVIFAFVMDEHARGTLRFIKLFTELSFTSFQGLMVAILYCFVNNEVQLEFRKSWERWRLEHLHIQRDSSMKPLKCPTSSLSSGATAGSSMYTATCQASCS

Compound	Fibril formation [1]	EC50 [2, 5] [nM]	Selectivity [3]	EC50 [3, 6] [nM]	Turbidity (pH 7) [4]	EC50 [2, 7] [nM]	EC50 [3, 8] [nM]	SCTR EC50/GLP1R EC50 ratio [3]	EC50 [2] [nM]	EC50 [3] [nM]
CC(C)C[C@H](NC(=O)[C@H](Cc1ccccc1)NC(=O)[C@H](CCCNC(=N)N)NC(=O)[C@H](CCC(N)=O)NC(=O)[C@H](CCC(N)=O)NC(=O)[C@H](C)NC(=O)[C@H](C)NC(=O)[C@@H](NC(=O)[C@H](CCC(=O)O)NC(=O)[C@H](CCCCNC(=O)COCCOCCNC(=O)COCCOCCNC(=O)CC[C@H](NC(=O)CCCCCCCCCCCCCCCCCCC(=O)O)C(=O)O)NC(=O)[C@H](CC(C)C)NC(=O)[C@H](CCCNC(=N)N)NC(=O)[C@H](CO)NC(=O)[C@@H](NC(=O)[C@H](CC(=O)O)NC(=O)[C@H](CO)NC(=O)[C@@H](NC(=O)[C@H](Cc1ccccc1)NC(=O)[C@@H](NC(=O)CNC(=O)[C@H](CCC(=O)O)NC(=O)C(C)(C)NC(=O)[C@@H](N)Cc1c[nH]cn1)[C@@H](C)O)[C@@H](C)O)C(C)C)[C@@H](C)O)C(=O)N[C@@H](CCC(=O)O)C(=O)N[C@@H](Cc1c[nH]cn1)C(=O)N[C@@H](CC(C)C)C(=O)N[C@H](C(N)=O)C(C)C [compound 21] (H-H[Aib]EGTFTSDVSRLK([AEEA-AEEA-γGlu-C20 diacid])ETAAQQRFLEHLV-NH2)	193729	200	17906	0.0126	0.08	–	–	–	–	–
CC[C@H](C)[C@H](NC(=O)C(C)(C)NC(=O)[C@@H](N)Cc1c[nH]cn1)C(=O)NCC(=O)N[C@H](C(=O)N[C@@H](Cc1ccccc1)C(=O)N[C@H](C(=O)N[C@@H](CO)C(=O)N[C@@H](CC(=O)O)C(=O)N[C@H](C(=O)N[C@@H](CO)C(=O)N[C@@H](Cc1ccc(O)cc1)C(=O)N[C@@H](CC(C)C)C(=O)N[C@@H](CCCCNC(=O)COCCOCCNC(=O)COCCOCCNC(=O)CC[C@H](NC(=O)CCCCCCCCCCCCCCCCCCC(=O)O)C(=O)O)C(=O)N[C@@H](CCC(=O)O)C(=O)N[C@@H](CCC(=O)O)C(=O)N[C@@H](C)C(=O)NC(C)(C)C(=O)N[C@@H](CC(C)C)C(=O)N[C@@H](CCC(N)=O)C(=O)N[C@@H](CCCNC(=N)N)C(=O)N[C@@H](Cc1ccccc1)C(=O)N[C@@H](CC(C)C)C(=O)N[C@@H](CCC(=O)O)C(=O)N[C@@H](Cc1c[nH]cn1)C(=O)N[C@@H](CC(C)C)C(=O)N[C@H](C(N)=O)C(C)C)C(C)C)[C@@H](C)O)[C@@H](C)O [compound 175] (H-H[Aib]IGTFTSDVSYLK([AEEA-AEEA-γGlu-C20 diacid])EEA[Aib]LQRFLEHLV-NH2)	3296	–	–	–	0.08	7940	0.0316	247885	–	–
CC(C)C[C@H](NC(=O)[C@H](Cc1ccccc1)NC(=O)[C@H](CCCNC(=N)N)NC(=O)[C@H](CCC(N)=O)NC(=O)[C@H](CO)NC(=O)[C@H](C)NC(=O)[C@H](C)NC(=O)[C@H](CCC(=O)O)NC(=O)[C@H](CCC(=O)O)NC(=O)[C@H](CCCCNC(=O)COCCOCCNC(=O)COCCOCCNC(=O)CC[C@H](NC(=O)CCCCCCCCCCCCCCCCCCC(=O)O)C(=O)O)NC(=O)[C@H](CC(C)C)NC(=O)[C@H](Cc1ccccc1)NC(=O)[C@H](CO)NC(=O)[C@@H](NC(=O)[C@H](CC(=O)O)NC(=O)[C@H](CO)NC(=O)[C@@H](NC(=O)[C@H](Cc1ccccc1)NC(=O)[C@@H](NC(=O)CNC(=O)[C@H](CCC(=O)O)NC(=O)C(C)(C)NC(=O)[C@@H](N)Cc1c[nH]cn1)[C@@H](C)O)[C@@H](C)O)C(C)C)C(=O)N[C@@H](CCC(=O)O)C(=O)N[C@@H](Cc1c[nH]cn1)C(=O)N[C@@H](CC(C)C)C(=O)N[C@H](C(N)=O)C(C)C [compound 38] (H-H[Aib]EGTFTSDVSFLK([AEEA-AEEA-γGlu-C20 diacid])EEAASQRFLEHLV-NH2)	38424	1000	35785	0.0316	0.09	–	–	–	–	–
CC(C)C[C@H](NC(=O)[C@H](Cc1ccccc1)NC(=O)[C@H](CCCNC(=N)N)NC(=O)[C@H](CCC(N)=O)NC(=O)[C@@H](NC(=O)[C@H](C)NC(=O)[C@H](C)NC(=O)[C@@H](NC(=O)[C@H](CCC(=O)O)NC(=O)[C@H](CCCCNC(=O)COCCOCCNC(=O)COCCOCCNC(=O)CC[C@H](NC(=O)CCCCCCCCCCCCCCCCCCC(=O)O)C(=O)O)NC(=O)[C@H](CC(C)C)NC(=O)[C@@H](NC(=O)[C@H](CO)NC(=O)[C@@H](NC(=O)[C@H](CC(=O)O)NC(=O)[C@H](CO)NC(=O)[C@@H](NC(=O)[C@H](Cc1ccccc1)NC(=O)[C@@H](NC(=O)CNC(=O)[C@H](CCC(=O)O)NC(=O)C(C)(C)NC(=O)[C@@H](N)Cc1c[nH]cn1)[C@@H](C)O)[C@@H](C)O)C(C)C)[C@@H](C)O)[C@@H](C)O)[C@@H](C)O)C(=O)N[C@@H](CCC(=O)O)C(=O)N[C@@H](Cc1c[nH]cn1)C(=O)N[C@@H](CC(C)C)C(=O)N[C@H](C(N)=O)C(C)C [compound 93] (H-H[Aib]EGTFTSDVSTLK([AEEA-AEEA-γGlu-C20 diacid])ETAATQRFLEHLV-NH2)	6728	–	–	–	0.08	–	–	36771	316	0.01

Continued, in another order:

Fibril formation [1]	EC50 [2, 5] [nM]	Selectivity [3]	EC50 [3, 6] [nM]	Turbidity (pH 7) [4]	EC50 [2, 7] [nM]	EC50 [3, 8] [nM]	SCTR EC50/GLP1R EC50 ratio [3]	Compound	EC50 [2] [nM]	EC50 [3] [nM]
4675	–	–	–	0.11	10000	3.98	2342	CC[C@H](C)[C@H](NC(=O)[C@H](Cc1ccccc1)NC(=O)[C@H](CCCNC(=N)N)NC(=O)[C@H](CCC(N)=O)NC(=O)[C@H](CC(C)C)NC(=O)[C@H](C)NC(=O)[C@H](C)NC(=O)CNC(=O)[C@H](CCC(=O)O)NC(=O)[C@H](CC(C)C)NC(=O)[C@H](CC(C)C)NC(=O)C(C)(C)NC(=O)[C@H](CO)NC(=O)[C@@H]1CCCN1C(=O)[C@H](CC(=O)O)NC(=O)[C@H](CO)NC(=O)[C@@H](NC(=O)[C@H](Cc1ccccc1)NC(=O)[C@@H](NC(=O)CNC(=O)[C@H](CCC(=O)O)NC(=O)C(C)(C)NC(=O)[C@@H](N)Cc1c[nH]cn1)[C@@H](C)O)[C@@H](C)O)C(=O)N[C@@H](CCC(N)=O)C(=O)N[C@@H](Cc1c[nH]c2ccccc12)C(=O)N[C@@H](CC(C)C)C(=O)N[C@H](C(N)=O)C(C)C [compound 125] (H-H[Aib]EGTFTSDPS[Aib]LLEGAALQRFIQWLV-NH2)	–	–
170210	631	7342	0.0794	0.10	–	–	–	CC(C)C[C@H](NC(=O)[C@H](CCC(=O)O)NC(=O)[C@H](CCCCNC(=O)COCCOCCNC(=O)COCCOCCNC(=O)CC[C@H](NC(=O)CCCCCCCCCCCCCCCCCCC(=O)O)C(=O)O)NC(=O)[C@H](CC(C)C)NC(=O)[C@H](CCCNC(=N)N)NC(=O)[C@H](CO)NC(=O)[C@@H](NC(=O)[C@H](CC(=O)O)NC(=O)[C@H](CO)NC(=O)[C@@H](NC(=O)[C@H](Cc1ccccc1)NC(=O)[C@@H](NC(=O)CNC(=O)[C@H](CCC(=O)O)NC(=O)C(C)(C)NC(=O)[C@@H](N)Cc1c[nH]cn1)[C@@H](C)O)[C@@H](C)O)C(C)C)C(=O)N[C@@H](C)C(=O)N[C@@H](C)C(=O)N[C@@H](CO)C(=O)N[C@@H](CCC(N)=O)C(=O)N[C@@H](CCCNC(=N)N)C(=O)N[C@@H](Cc1ccccc1)C(=O)N[C@@H](CC(C)C)C(=O)N[C@@H](CCC(=O)O)C(=O)N[C@@H](Cc1c[nH]cn1)C(=O)N[C@@H](CC(C)C)C(=O)N[C@H](C(N)=O)C(C)C [compound 19] (H-H[Aib]EGTFTSDVSRLK([AEEA-AEEA-γGlu-C20 diacid])ELAASQRFLEHLV-NH2)	–	–
12367	2000	158052	0.0126	0.08	–	–	–	CC(C)C[C@H](NC(=O)[C@H](Cc1ccccc1)NC(=O)[C@H](CCCNC(=N)N)NC(=O)[C@H](CCC(N)=O)NC(=O)C(C)(C)NC(=O)[C@H](C)NC(=O)[C@H](C)NC(=O)[C@H](CCC(=O)O)NC(=O)[C@H](CCC(=O)O)NC(=O)[C@H](CCCCNC(=O)COCCOCCNC(=O)COCCOCCNC(=O)CC[C@H](NC(=O)CCCCCCCCCCCCCCCCCCC(=O)O)C(=O)O)NC(=O)[C@H](CC(C)C)NC(=O)[C@H](Cc1ccccc1)NC(=O)[C@H](CO)NC(=O)[C@@H](NC(=O)[C@H](CC(=O)O)NC(=O)[C@H](CO)NC(=O)[C@@H](NC(=O)[C@H](Cc1ccccc1)NC(=O)[C@@H](NC(=O)CNC(=O)[C@H](CCC(=O)O)NC(=O)C(C)(C)NC(=O)[C@@H](N)Cc1c[nH]cn1)[C@@H](C)O)[C@@H](C)O)C(C)C)C(=O)N[C@@H](CCC(=O)O)C(=O)N[C@@H](Cc1c[nH]cn1)C(=O)N[C@@H](CC(C)C)C(=O)N[C@H](C(N)=O)C(C)C [compound 37] (H-H[Aib]EGTFTSDVSFLK([AEEA-AEEA-γGlu-C20 diacid])EEAA[Aib]QRFLEHLV-NH2)	–	–
